The results in this text go back to PubChem BioAssay AID256 (DTP/NCI, 2004).

This experiment has as its system CD2F1 mice, L1210 leukemia ip, survival T/C. Briefly: NCI In Vivo Anticancer Drug Screen. Data for tumor model L1210 Leukemia (intraperitoneal) in CD2F1 (CDF1) mice. Particulars: higher = longer survival. An outline of the steps: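 Ratio T/C, where T is the treated-group value and C the vehicle-dosed control value, from mice implanted with a transplantable tumor.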

[1] abbreviates: endpoint: mean survival time, dose: 100.0 mg/kg/injection, schedule: Q01DX009 (ip), vehicle: saline with Tween-80.
The mark [2] stands for this setting: endpoint: mean survival time, dose: 200.0 mg/kg/injection, schedule: Q01DX009 (ip), vehicle: saline with Tween-80.
Where [3] appears, read: endpoint: mean survival time, dose: 100.0 mg/kg/injection, schedule: Q04DX003 (ip), vehicle: saline with Tween-80.
The mark [4] stands for this setting: endpoint: mean survival time, dose: 200.0 mg/kg/injection, schedule: Q04DX003 (ip), vehicle: saline with Tween-80.
[5] abbreviates: endpoint: mean survival time, dose: 400.0 mg/kg/injection, schedule: Q04DX003 (ip), vehicle: saline with Tween-80.
Setting [6] is: endpoint: mean survival time, dose: 75.0 mg/kg/injection, schedule: Q01DX009 (ip), vehicle: saline.
Where [7] appears, read: endpoint: mean survival time, dose: 150.0 mg/kg/injection, schedule: Q01DX009 (ip), vehicle: saline.

Where “and” joins values, the source holds several entries; their conditions need not be identical. Equal values may be shown once. Inconclusive results and toxic doses are left out.

In the case of `CN1CCN(Cc2cn(C3CC(O)C(CO)O3)c(=O)[nH]c2=O)CC1` (stereo not drawn), the T/C by setting is: (endpoint: mean survival time, dose: 12.5 mg/kg/injection, schedule: Q01DX005 (ip), vehicle: water) 96 % of control; (endpoint: mean survival time, dose: 25.0 mg/kg/injection, schedule: Q01DX005 (ip), vehicle: water) 93 % of control; (endpoint: mean survival time, dose: 50.0 mg/kg/injection, schedule: Q01DX005 (ip), vehicle: water) 91 % of control; (endpoint: mean survival time, dose: 100.0 mg/kg/injection, schedule: Q01DX005 (ip), vehicle: water) 95 % of control; (endpoint: mean survival time, dose: 200.0 mg/kg/injection, schedule: Q01DX005 (ip), vehicle: water) 90 % of control.

Turning to `O=C1c2ccccc2C(=O)c2c1cn1c2Cc2ccccc2C1`, the T/C is 106 % of control (endpoint: median survival time, dose: 9.0 mg/kg/injection, schedule: Q01DX005 (ip), vehicle: Klucel (hydroxypropylcellulose) (HPC)); 106 % of control and 107 % of control (endpoint: median survival time, dose: 9.37 mg/kg/injection, schedule: Q01DX005 (ip), vehicle: other); 110 % of control (endpoint: median survival time, dose: 12.5 mg/kg/injection, schedule: Q01DX005 (ip), vehicle: Klucel (hydroxypropylcellulose) (HPC)); 109 % of control (endpoint: median survival time, dose: 15.0 mg/kg/injection, schedule: Q01DX005 (ip), vehicle: Klucel (hydroxypropylcellulose) (HPC)); 114 % of control and 103 % of control (endpoint: median survival time, dose: 18.75 mg/kg/injection, schedule: Q01DX005 (ip), vehicle: other); 107 % of control (endpoint: median survival time, dose: 25.0 mg/kg/injection, schedule: Q01DX005 (ip), vehicle: Klucel (hydroxypropylcellulose) (HPC)). Also, the T/C reads like this: (endpoint: median survival time, dose: 37.5 mg/kg/injection, schedule: Q01DX005 (ip), vehicle: other) 114 % of control and 111 % of control; (endpoint: median survival time, dose: 41.66 mg/kg/injection, schedule: Q01DX005 (ip), vehicle: Klucel (hydroxypropylcellulose) (HPC)) 114 % of control; (endpoint: median survival time, dose: 50.0 mg/kg/injection, schedule: Q01DX005 (ip), vehicle: Klucel (hydroxypropylcellulose) (HPC)) 108 % of control; (endpoint: median survival time, dose: 69.44 mg/kg/injection, schedule: Q01DX005 (ip), vehicle: Klucel (hydroxypropylcellulose) (HPC)) 106 % of control; (endpoint: median survival time, dose: 75.0 mg/kg/injection, schedule: Q01DX005 (ip), vehicle: other) 114 % of control and 98 % of control; (endpoint: median survival time, dose: 100.0 mg/kg/injection, schedule: Q01DX005 (ip), vehicle: Klucel (hydroxypropylcellulose) (HPC)) 122 % of control. The T/C was 110 % of control (endpoint: median survival time, dose: 150.0 mg/kg/injection, schedule: Q01DX005 (ip), vehicle: other) and 107 % of control (endpoint: median survival time, dose: 200.0 mg/kg/injection, schedule: Q01DX005 (ip), vehicle: Klucel (hydroxypropylcellulose) (HPC)).

Take `NSc1ccc([N+](=O)[O-])cc1`: the T/C is 270 % of control (endpoint: mean survival time, dose: 25.0 mg/kg/injection, schedule: Q01DX001 (ip), vehicle: other) and 204 % of control (endpoint: mean survival time, dose: 50.0 mg/kg/injection, schedule: Q01DX001 (ip), vehicle: other).

As to `CCCCc1ccc2nc(NC(=O)OC)[nH]c2c1`, the T/C runs as follows: (endpoint: mean survival time, dose: 6.25 mg/kg/injection, schedule: Q01DX009 (ip), vehicle: saline with Tween-80) 107 % of control; (endpoint: mean survival time, dose: 12.5 mg/kg/injection, schedule: Q01DX009 (ip), vehicle: saline with Tween-80) 113 % of control; under setting [1], 166 % of control; under setting [2], 86 % of control.

Turning to `CC(C)(C)C(=O)CC(=O)C(C)(C)C.CC(C)(C)C(=O)CC(=O)C(C)(C)C.CC(C)(C)C(=O)CC(=O)C(C)(C)C.[Dy]`, the T/C is 97 % of control under setting [3], 94 % of control under setting [4] and 94 % of control under setting [5].

On to `O=[N+]([O-])c1ccc(N(CCO)CCO)c2c1no[n+]2[O-]`, for which the T/C runs as follows: (endpoint: median survival time, dose: 12.5 mg/kg/injection, schedule: Q01DX009 (ip), vehicle: saline with Tween-80) 114 % of control; (endpoint: median survival time, dose: 25.0 mg/kg/injection, schedule: Q01DX009 (ip), vehicle: saline with Tween-80) 111 % of control; (endpoint: median survival time, dose: 50.0 mg/kg/injection, schedule: Q01DX009 (ip), vehicle: saline with Tween-80) 114 % of control.

Take `O=P(O)(O)CP(=O)(O)O.[NH-]CC[NH-].[NH-]CC[NH-].[Pd+2].[Pd+2]`: the T/C was 95 % of control (endpoint: mean survival time, dose: 3.13 mg/kg/injection, schedule: Q04DX003 (ip), vehicle: distilled water + Tween-80); 106 % of control (endpoint: mean survival time, dose: 6.25 mg/kg/injection, schedule: Q04DX003 (ip), vehicle: distilled water + Tween-80); 95 % of control (endpoint: mean survival time, dose: 12.5 mg/kg/injection, schedule: Q04DX003 (ip), vehicle: distilled water + Tween-80); 97 % of control (endpoint: mean survival time, dose: 25.0 mg/kg/injection, schedule: Q04DX003 (ip), vehicle: distilled water + Tween-80); 98 % of control (endpoint: mean survival time, dose: 50.0 mg/kg/injection, schedule: Q04DX003 (ip), vehicle: distilled water + Tween-80); 106 % of control (endpoint: mean survival time, dose: 100.0 mg/kg/injection, schedule: Q04DX003 (ip), vehicle: distilled water + Tween-80).

Take `NNC(=O)c1ccc([N+](=O)[O-])o1`: the T/C is, setting by setting: (endpoint: mean survival time, dose: 37.5 mg/kg/injection, schedule: Q01DX009 (ip), vehicle: saline with Tween-80) 97 % of control; under setting [3], 110 % of control.

Consider `C/C(=N\O)c1ccc2[nH]c(C)cc(=O)c2c1`, for which the T/C reads like this: (endpoint: mean survival time, dose: 37.5 mg/kg/injection, schedule: Q01DX009 (ip), vehicle: saline) 97 % of control; under setting [6], 97 % of control; (endpoint: mean survival time, dose: 75.0 mg/kg/injection, schedule: Q04DX003 (ip), vehicle: saline) 95 % of control; under setting [7], 92 % of control; (endpoint: mean survival time, dose: 150.0 mg/kg/injection, schedule: Q04DX003 (ip), vehicle: saline) 95 % of control; (endpoint: mean survival time, dose: 300.0 mg/kg/injection, schedule: Q04DX003 (ip), vehicle: saline) 93 % of control.

As for `C[N+](C)(C)CCCNC(=O)Nc1ccc(Cl)cc1`, the T/C by setting is: (endpoint: mean survival time, dose: 6.25 mg/kg/injection, schedule: Q04DX002 (ip), vehicle: saline) 106 % of control; (endpoint: mean survival time, dose: 25.0 mg/kg/injection, schedule: Q04DX002 (ip), vehicle: saline) 100 % of control.

As for `O=C(O)C1C(C(=O)O)C(C(=O)O)C1C(=O)O` (stereo not drawn), the T/C runs as follows: (endpoint: mean survival time, dose: 50.0 mg/kg/injection, schedule: Q01DX009 (ip), vehicle: saline with Tween-80) 109 % of control; under setting [1], 95 % of control; under setting [2], 108 % of control.

On to `O=C(NNc1ccccc1)c1ccccc1`, for which the T/C was 110 % of control (endpoint: mean survival time, dose: 12.5 mg/kg/injection, schedule: Q01DX009 (ip), vehicle: Klucel (hydroxypropylcellulose) (HPC)); 105 % of control (endpoint: mean survival time, dose: 25.0 mg/kg/injection, schedule: Q01DX009 (ip), vehicle: Klucel (hydroxypropylcellulose) (HPC)); 106 % of control (endpoint: mean survival time, dose: 50.0 mg/kg/injection, schedule: Q01DX009 (ip), vehicle: Klucel (hydroxypropylcellulose) (HPC)); 96 % of control under setting [6]; 110 % of control (endpoint: mean survival time, dose: 100.0 mg/kg/injection, schedule: Q04DX002 (ip), vehicle: saline with Tween-80); 97 % of control under setting [7]. The T/C reads like this: (endpoint: mean survival time, dose: 200.0 mg/kg/injection, schedule: Q04DX002 (ip), vehicle: saline with Tween-80) 100 % of control; (endpoint: mean survival time, dose: 300.0 mg/kg/injection, schedule: Q01DX009 (ip), vehicle: saline) 98 % of control; (endpoint: mean survival time, dose: 400.0 mg/kg/injection, schedule: Q04DX002 (ip), vehicle: saline with Tween-80) 110 % of control.

As for `CSc1nn(C2OC(COC(=O)c3ccccc3)C(OC(=O)c3ccccc3)C2OC(=O)c2ccccc2)c(=O)[nH]c1=S` (stereo not drawn), the T/C was 96 % of control (endpoint: mean survival time, dose: 12.5 mg/kg/injection, schedule: Q01DX005 (ip), vehicle: distilled water + Tween-80); 98 % of control (endpoint: mean survival time, dose: 25.0 mg/kg/injection, schedule: Q01DX005 (ip), vehicle: distilled water + Tween-80); 95 % of control (endpoint: mean survival time, dose: 50.0 mg/kg/injection, schedule: Q01DX005 (ip), vehicle: distilled water + Tween-80); 93 % of control (endpoint: mean survival time, dose: 100.0 mg/kg/injection, schedule: Q01DX005 (ip), vehicle: distilled water + Tween-80); 91 % of control (endpoint: mean survival time, dose: 200.0 mg/kg/injection, schedule: Q01DX005 (ip), vehicle: distilled water + Tween-80).

As for `CCCCCCCCCCCCCC(=O)O.[Pb]`, the T/C is 98 % of control (endpoint: mean survival time, dose: 75.0 mg/kg/injection, schedule: Q01DX001 (ip), vehicle: other); 101 % of control (endpoint: mean survival time, dose: 150.0 mg/kg/injection, schedule: Q01DX001 (ip), vehicle: other); 101 % of control (endpoint: mean survival time, dose: 300.0 mg/kg/injection, schedule: Q01DX001 (ip), vehicle: other).

For `Cc1cc2oc(=O)cc(O)c2c(=O)o1`, the T/C reads like this: under setting [1], 96 % of control; under setting [3], 94 % of control; under setting [2], 96 % of control; under setting [4], 97 % of control; under setting [5], 98 % of control.

With `CCCCCCCCSC#N`, where the note is “endpoint: mean survival time, dose: 50.0 mg/kg/injection, schedule: Q01DX001 (ip), vehicle: carboxymethylcellulose (CMC)”, the T/C was 100 % of control.
